Test results as given in the supplement of paper PMC11061612.

How the values were obtained:
Experiment in all cases: Bliss excess, mean over the matrix (fraction); higher = more synergy
[1] = test system: OVISE (Ovarian Carcinoma)
Summary of the method: (§1)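 Cell lines in DMEM/F12 or RPMI with 10% FBS were plated in 1536-well plates, held 24 hours at 37°C, 5% CO2, then given two-drug dose matrices for 72 hours (DMSO typically 0.2%). Viability was read by CellTiter-Glo 2.0 luminescence and scaled as inhibition from 0 (vehicle wells) to 1 (blank wells). Combination Emax is the second-highest inhibition in the matrix; Bliss excess is observed combination effect minus expected EA + EB − EA·EB, EA and EB being single-agent effects.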

[2] = test system: SNU-C1 (Colorectal Carcinoma)
Summary of the method: as §1

[3] = test system: NCI-H2405 (Lung Adenocarcinoma)
Summary of the method: as §1

[4] = test system: OCUB-M (Breast Carcinoma)
Summary of the method: as §1

BT-20 (Breast Carcinoma) = test system: BT-20 (Breast Carcinoma)
Summary of the method: as §1

[5] = test system: NCI-H322M (Lung Adenocarcinoma)
Summary of the method: as §1

[6] = test system: KU-19-19 (Bladder Carcinoma)
Summary of the method: as §1

[7] = test system: LOU-NH91 (Squamous Cell Lung Carcinoma)
Summary of the method: as §1

IMR-5 (Neuroblastoma) = test system: IMR-5 (Neuroblastoma)
Summary of the method: as §1

[8] = test system: SCC-9 (Oral Cavity Carcinoma)
Summary of the method: as §1

EW-13 (Ewing's Sarcoma) = test system: EW-13 (Ewing's Sarcoma)
Summary of the method: as §1

[9] = test system: LC4-1 (B-Lymphoblastic Leukemia)
Summary of the method: as §1

[10] = test system: KLE (Endometrial Carcinoma)
Summary of the method: as §1

[11] = test system: H-EMC-SS (Chondrosarcoma)
Summary of the method: as §1

[12] = test system: HuP-T3 (Pancreatic Carcinoma)
Summary of the method: as §1

[13] = test system: EBC-1 (Squamous Cell Lung Carcinoma)
Summary of the method: as §1

U-87-MG (Glioblastoma) = test system: U-87-MG (Glioblastoma)
Summary of the method: as §1

[14] = test system: ASH-3 (Thyroid Gland Carcinoma)
Summary of the method: as §1

[15] = test system: DG-75 (Burkitt's Lymphoma)
Summary of the method: as §1

[16] = test system: KINGS-1 (Low Grade Glioma)
Summary of the method: as §1

SMILES	Bliss excess [1]	Bliss excess [2]	Bliss excess [3]	Bliss excess [4]	Bliss excess (BT-20 (Breast Carcinoma))	Bliss excess [5]	Bliss excess [6]	Bliss excess [7]	Bliss excess (IMR-5 (Neuroblastoma))	Bliss excess [8]	Bliss excess (EW-13 (Ewing's Sarcoma))	Bliss excess [9]	Bliss excess [10]	Bliss excess [11]	Bliss excess [12]	Bliss excess [13]	Bliss excess (U-87-MG (Glioblastoma))	Bliss excess [14]	Bliss excess [15]	Bliss excess [16]
CC1(C)CCC(CN2CCN(c3ccc(C(=O)NS(=O)(=O)c4ccc(NCC5CCOCC5)c([N+](=O)[O-])c4)c(Oc4cnc5[nH]ccc5c4)c3)CC2)=C(c2ccc(Cl)cc2)C1 [Venetoclax] + CN(C)CCCOc1ccc(-c2ccc3ncc4c(c3c2)n(C2CCOCC2)c(=O)n4C)cn1 [AZD0156] (first compound max 1 µM, 7x7, partner max 1 µM)	-0.01	-0.051	-0.0324	0.0289	-0.0163	-0.0103	-0.0167	-0.0307	-0.0087	-0.0351	-0.0351	0.056	-0.145	-0.0387	-0.0925	0.0095	-0.0163	-0.0193	-0.0123	-0.0746
Cc1c2c(nn1C)CSCc1cc(n(C)n1)CSc1cc(c3ccccc3c1)OCCCc1c(C(=O)O)n(C)c3c-2c(Cl)ccc13 [AZD5991] + CCN(CCO)CCCOc1ccc2c(Nc3cc(CC(=O)Nc4cccc(F)c4)[nH]n3)ncnc2c1 [AZD2811] (first compound max 1 µM, 7x7, partner max 1 µM)	0.0535	-0.0256	-0.0164	-0.0116	0.108	-0.0057	0.0376	0.0225	-0.0117		0.032	-0.0464	-0.0923	0.027	-0.019	0.0019	0.0065	-0.014	0.0704	-0.0253
CN(C)CCCOc1ccc(-c2ccc3ncc4c(c3c2)n(C2CCOCC2)c(=O)n4C)cn1 [AZD0156] + O=C(c1cc(Cc2n[nH]c(=O)c3ccccc23)ccc1F)N1CCN(C(=O)C2CC2)CC1 [Olaparib] (first compound max 3 µM, partner max 3 µM)	-0.0084	-0.0049	-0.0471	-0.0091	0.0209	0.0142	0.0781	-0.0153	0.0884	0.0741		0.25	-0.0506	0.029	-0.0247	0.0413	0.0207	-0.0311	0.0614	-0.0057
C=CCn1c(=O)c2cnc(Nc3ccc(N4CCN(C)CC4)cc3)nc2n1-c1cccc(C(C)(C)O)n1 [AZD1775] + C1CN(CCC1(C(=O)N[C@@H](CCO)C2=CC=C(C=C2)Cl)N)C3=NC=NC4=C3C=CN4 [Capivasertib] (first compound max 3 µM, partner max 3 µM)	-0.101	-0.0869	-0.0891	-0.0436	-0.0742	0.0152	-0.0174	-0.0301	-0.0214	0.0038		-0.0233	-0.0627	-0.0422	-0.0608	-0.0602	0.0503	-0.0086	0.0215	-0.0687
C[C@@H](c1ccc2nccn2c1)n1nnc2ncc(-c3cnn(C)c3)nc21 [Savolitinib] + CN(CC[C@H](CSC1=CC=CC=C1)NC2=C(C=C(C=C2)S(=O)(=O)NC(=O)C3=CC=C(C=C3)N4CCC(CC4)[C@H](C5=CC=CC=C5C6=CC=C(C=C6)Cl)O)S(=O)(=O)C(F)(F)F)CCO [AZD4320] (first compound max 1 µM, 7x7, partner max 1 µM)	-0.0472		-0.0553		-0.0084	-0.0487	-0.0259	-0.0642	-0.0399		-0.0577		-0.0664		-0.0586	-0.0067	-0.143	-0.0078	-0.0338	
COc1cccc(OCCCN)c1-c1cc(Nc2cnc(C#N)cn2)n[nH]1 [Prexasertib] + C=CCn1c(=O)c2cnc(Nc3ccc(N4CCN(C)CC4)cc3)nc2n1-c1cccc(C(C)(C)O)n1 [AZD1775] (first compound max 1 µM, partner max 1 µM)	0.0144	0.0175	0.032	0.232	0.0725	0.0366	0.0222	0.0332	0.12	0.0249	0.0788	0.0128	0.112	0.0712	0.0054	0.0628		0.235	0.0708	0.072
COc1nnc2ccc(N3CCC(c4ccc(OCCN5CCN(C)C(=O)[C@H]5C)cc4)CC3)nn12 [AZD5153] + CN(CC[C@H](CSC1=CC=CC=C1)NC2=C(C=C(C=C2)S(=O)(=O)NC(=O)C3=CC=C(C=C3)N4CCC(CC4)[C@H](C5=CC=CC=C5C6=CC=C(C=C6)Cl)O)S(=O)(=O)C(F)(F)F)CCO [AZD4320] (first compound max 1 µM, 7x7, partner max 1 µM)	0.0504		0.0342		-0.0001	0.0066	0.0829	-0.0215	0.0807		-0.0243		0.0847		0.0559	0.0628	0.099	0.107	-0.0557	
CC(=O)c1c(C)c2cnc(Nc3ccc(N4CCNCC4)cn3)nc2n(C2CCCC2)c1=O [Palbociclib] + CN(CC[C@H](CSC1=CC=CC=C1)NC2=C(C=C(C=C2)S(=O)(=O)NC(=O)C3=CC=C(C=C3)N4CCC(CC4)[C@H](C5=CC=CC=C5C6=CC=C(C=C6)Cl)O)S(=O)(=O)C(F)(F)F)CCO [AZD4320] (first compound max 10 µM, 7x7, partner max 1 µM)	-0.0207		-0.0614		-0.01	-0.0711	-0.0482	-0.0157	0.0866		-0.121		-0.0276		-0.074	-0.0226	-0.0528	-0.0104	-0.0373	
Cc1cc2ncnn2cc1Nc1ncc2c(n1)n(C1CCOCC1)c(=O)n2C [AZD7648] + C=CCn1c(=O)c2cnc(Nc3ccc(N4CCN(C)CC4)cc3)nc2n1-c1cccc(C(C)(C)O)n1 [AZD1775] (first compound max 10 µM, partner max 1 µM)	-0.0043	-0.0209	-0.0064	0.0389	-0.0186	-0.0215	-0.0201	0.012	-0.0146	0.0332	0.0225	-0.001	0.0159	-0.028	-0.0189	-0.0041		-0.0006	-0.0652	-0.0041
Cc1cc2ncnn2cc1Nc1ncc2c(n1)n(C1CCOCC1)c(=O)n2C [AZD7648] + CN(C)CCCOc1ccc(-c2ccc3ncc4c(c3c2)n(C2CCOCC2)c(=O)n4C)cn1 [AZD0156] (first compound max 10 µM, 7x7, partner max 1 µM)	0.0265	-0.0423	-0.0074	-0.0055	0.0154	0.0083	0.0009	0.0454	0.009	-0.0144	-0.0385	0.0127	0.0175	-0.0396	-0.0065	0.0204		0.0116	0.0226	0.0089
CCN(CCO)CCCOc1ccc2c(Nc3cc(CC(=O)Nc4cccc(F)c4)[nH]n3)ncnc2c1 [AZD2811] + C[C@@H]1COCCN1C2=NC(=NC(=C2)C3(CC3)[S@](=N)(=O)C)C4=C5C=CNC5=NC=C4 [AZD6738] (first compound max 1 µM, 7x7, partner max 10 µM)	-0.0542	-0.122	-0.0526	-0.107	-0.0356	-0.0484	-0.0384	-0.0583	-0.0339	-0.0594	-0.0257	-0.0882	-0.0262	-0.0723	-0.067	-0.0182		-0.0367	-0.0611	-0.112
CN(CCO)CC[C@H](CSc1ccccc1)Nc1ccc(S(=O)(=O)NC(=O)c2ccc(N3CCC([C@@H](O)c4ccccc4-c4ccc(Cl)cc4)CC3)cc2)cc1S(=O)(=O)C(F)(F)F [AZD4320] + Cn1cnc2c(F)c(Nc3ccc(Br)cc3Cl)c(C(=O)NOCCO)cc21 [Selumetinib] (first compound max 1 µM, 7x7, partner max 3 µM)	0.024		0.0717	0.0206	0.0937	0.0818	0.0193	0.0027	0.0409	0.005	-0.0149	0.0831	0.0087	-0.0378	-0.0166	0.0478	-0.0117	-0.026	-0.0512	0.0328
Cc1cc2ncnn2cc1Nc1ncc2c(n1)n(C1CCOCC1)c(=O)n2C [AZD7648] + O=C(c1cc(Cc2n[nH]c(=O)c3ccccc23)ccc1F)N1CCN(C(=O)C2CC2)CC1 [Olaparib] (first compound max 10 µM, 7x7, partner max 10 µM)	-0.0526	-0.0619	-0.0277	-0.0467	-0.0492	-0.0342	-0.0153	-0.0301	0.0328	-0.0438	-0.0427	-0.0517	-0.013	-0.0759	-0.0254	-0.0167		0.0057	0.0465	-0.0561
C=CCn1c(=O)c2cnc(Nc3ccc(N4CCN(C)CC4)cc3)nc2n1-c1cccc(C(C)(C)O)n1 [AZD1775] + O=C(c1cc(Cc2n[nH]c(=O)c3ccccc23)ccc1F)N1CCN(C(=O)C2CC2)CC1 [Olaparib] (first compound max 1 µM, partner max 10 µM)	-0.0084	-0.0721	-0.0675	-0.0211	-0.0681	-0.0222	-0.0107	-0.0271	-0.0161	-0.0027	-0.0801	0.0226	-0.0499	-0.0807	-0.0047	-0.0549		-0.0054	-0.0491	-0.0777
CCc1c2c(nc3ccc(O)cc13)-c1cc3c(c(=O)n1C2)COC(=O)[C@]3(O)CC [SN-38] + CN(C)CCCOc1ccc(-c2ccc3ncc4c(c3c2)n(C2CCOCC2)c(=O)n4C)cn1 [AZD0156] (first compound max 0.3 µM, 7x7, partner max 1 µM)	-0.0355	-0.0125	-0.0082	0.126	0.0684	0.15	0.0033	0.011	0.0314	0.0484	-0.0589	-0.0587	-0.0034	-0.0092	0.0438	-0.0488		0.0121	0.0751	-0.0185
